US8883504B2, “Cell differentiation suppressing agent, method of culturing cells using the same, culture solution, and cultured cell line” (Asahi Kasei Kabushiki Kaisha, priority 2003, dated 2014)

What was measured:
[1] = tested on: Oct-3/4 gene; assay: Oct-3/4 gene expression level by real time PCR (ES cell differentiation inhibition assay 2); type: cell-based, mouse; settings: D3ES cells, 7 days; for expression of Oct-3/4 gene in comparison with ES cells cultured in the medium without the differentiation inhibiting agent: GAPDH internal standard, FIG. 6; for effect of keeping the expression of the Oct-3/4 gene relative to ESGRO: compared with 1,000 units/mL of ESGRO
Protocol: For the D3ES cells prepared by the method described in (3) preparation of a mouse ES cell of Example 1, 8×10^4 cells were seeded in a 10 cm-diameter cell culture dish coated previously with a 0.1% aqueous gelatin solution to make 10 mL of the ES cell assay medium. 1 mL of the differentiation inhibiting agent A to F, which were dissolved in dimethylsulfoxide (DMSO) or culture medium or their mixture to make 40 μg/mL per each dish, or ESGRO, which was adjusted to make 10^4 unit/mL, was added, and culturing was carried out at 37° C. in 5% […] incubator for 7 days. To the culture medium was added DMSO to make the final concentration 0.1% or lower.
A total RNA was extracted from the ES cells cultured by the method described in (1) ES cell differentiation inhibition assay 2 as described above, by using ISOGEN (K.K. Nippon Gene, Japan made) by the attached method. First, the medium was removed from the dish after the culture, the cells were washed twice with 10 mL of PBS, and dissolved in 1 mL of ISOGENE. After leaving stand at room temperature for 5 minutes, the solution was collected in a 1.5 mL Eppendorf tube. 0.2 mL of chloroform (Wako Pure Chemical Industries made) was added, shaken for 15 seconds and, then, left stand at room temperature for 2 or 3 minutes. The solution was centrifuged at 4° C. at 10000 rpm for 10 minutes by using a micro centrifuge (TOMY SEIKO Corp. made). 400 μL of the supernatant was transferred to a fresh 1.5 mL Eppendorf tube, 500 μL of isopropanol (Wako Pure, Chemical Industries made) was added, and left stand at room temperature for 10 minutes, and, then, centrifuged at 4° C. at 10000 rpm for 10 minutes by using the micro centrifuge. After the supernatant was removed, 1 mL of a 70% aqueous ethanol solution was added followed by shaking and, then, centrifugation was carried out at 4° C. at 10000 rpm for about 5 minutes by using, the micro centrifuge. After the supernatant was removed, a precipitation was dried and dissolved in 30 μL of distilled water to obtain the total RNA solution.
2 μg of the thus obtained total RNA was used as a template to synthesize a cDNA according to the attached protocol by using Deoxyribonuclease I (Amplification Grade)(Invitrogen Corp. made), Oligo(dT) 12-18 primer (Invitrogen Corp. made, 18418-012) and Omniscript reverse transcriptase (QIAGEN Corp, made). Thus, a reaction solution was prepared by adding 1 μL of 10× DNaseI Reaction Buffer, 1 μL of 10× DNaseI (all were made by Invitrogen Corp.) and distilled water to 2 μg of total RNA to make 10 μL in total, and the mixture was incubated at room temperature for 10 minutes. 1 μL of 25 mM EDTA solution was added and heated at 65° C. for 10 minutes. The mixture was cooled to room temperature, and then, 2 μL of 10× Buffer RT, 2 μL of 5 mM dNTP Mix, 2 μL of Oligo(dT) 12-18 primer, 0.25 μL of RNaseOUT (Invitrogen Corp. made, 10777-019) and 1 μL of Omniscript Reverse Transcriptase were added, and RNase-free purified water was added to give the total volume of 20 μL, and the mixture was incubated at 37° C. for 60 minutes to obtain cDNA solution. A portion of the synthesized cDNA obtained in such the way was diluted 5 folds with distilled water, and 2 μL of the solution was used as the template to conduct PCR by using Light Cycler-Fast Start DNA Master SYBR Green I Kit (Roche Diagnostics Corp. made) according to the attached protocol. The expression levels of the Oct-3/4 gene and glyceraldehyde-3-phosphate dehydrogenase (GAPDH) gene as the internal standard were measured. For amplifying the Oct-3/4 gene, sense primer OCT3 up (SEQ ID No.: 1) and antisense primer Oct3 down (SEQ ID No.: 2) were used, and for amplifying the GAPDH gene, sense primer GAPDH up (SEQ ID No.: 3) and antisense primer GAPDH down (SEQ ID No.: 4) were used. The composition of the PCR reaction solution and the reaction condition will be each presented below.

[2] = tested on: mouse ES cell; assay: Subculture of ES cells, alkaline phosphatase quantified by colony assay; type: cell-based
Protocol: For the ES cells prepared by the method described in (3) preparation of the mouse ES cell of Example 1, 3×10^5 cells were seeded on a 6 cm-diameter cell culture dish coated previously with a 0.1% aqueous gelatin solution to make 4.5 mL of the ES cell assay medium. 0.5 mL of the differentiation inhibiting agent (A to F and a to o) of the present invention, which was dissolved in dimethylsulfoxide (DMSO) or culture medium, or their mixture to make 10 to 40 μg/mL per each dish, or 10^4 units/mL of ESGRO was added. The final concentration of DMSO in the culture medium was 0.1% or lower. As the control, only DMSO was made the final concentration in 0.1% by adding 0.5 mL of a 1% concentration solution diluted with the medium. Culturing was conducted at 37° C. in 5% CO2 incubator for 7 to 30 days. The medium was replaced every day, and the cells were passaged to make 3×10^5 cells/dish for every 2 to 3 days.
The alkaline phosphatase activity of the ES cells cultured for 7 or 30 days by using the differentiation inhibiting agents of the present invention was quantified by applying colony assay. […] The absorbance at 405 nm (O.D.405) and absorbance at 690 nm (O.D.690) of the solution were measured by using the spectrophotometer (Molecular Devices Corp. made, type: SPECTRA MAX190), and the value calculated from O.D.405-O.D.690 was determined as the alkaline phosphatase activity.

Row | Compound | expression of Oct-3/4 gene in comparison with ES cells cultured in the medium without the differentiation inhibiting agent [1] | alkaline phosphatase activity of subcultured ES cells in comparison with ES cells cultured by using DMSO (0.1%) ([2]; subcultured in the medium without serum for 7 days by adding the compound, FIG. 14) | effect of keeping the expression of the Oct-3/4 gene relative to ESGRO [1] | alkaline phosphatase activity of subcultured ES cells in comparison with ES cells cultured by using DMSO (0.1%) ([2]; subcultured for 30 days by adding the compound, FIG. 13)
1 | CC1(C)Cc2ccccc2C(=C(N=Nc2cccc(Cl)c2)C(N)=O)N1 [C, 2-(3-chloro-phenylazo)-2-(3,3-dimethyl-3,4-dihydro-2H-isoquinoline-1-ylidene)-acetamide] | maintained the expression of the Oct-3/4 gene |  |  | 
2 | CC1(C)Cc2ccccc2C(=C(N=Nc2cccc([N+](=O)[O-])c2)C(N)=O)N1 [E, 2-(3,3-dimethyl-3,4-dihydro-2H-isoquinoline-1-ylidene)-2-(3-nitro-phenylazo)-acetamide] | maintained the expression of the Oct-3/4 gene |  |  | 
3 | COc1ccc(N=NC(C(N)=O)=C2NC(C)(C)Cc3ccccc32)cc1 [F, 2-(3,3-dimethyl-3,4-dihydro-2H-isoquinoline-1-ylidene)-2-(4-methoxy-phenylazo)-acetamide] | significantly promoted | increased significantly | comparable with 1,000 units/mL of ESGRO | 
4 | CC(=O)c1ccc(/N=N/C(C(N)=O)=C2/NC(C)(C)Cc3ccccc32)cc1 [compound B, 2-(4-acetyl-phenylazo)-2-(3,3-dimethyl-3,4-dihydro-2H-isoquinoline-1-ylidene)-acetamide] | significantly promoted |  | comparable with 1,000 units/mL of ESGRO | increased significantly
